Results taken from US4476120A, “Thiolic derivatives of erythromycin having therapeutic activity, and pharmaceutical compositions containing them” (Sigma Tau Indistrie Farmaceutiche Riunites, p.A, priority 1982, dated 1984).
Values after ≈ are worked out from the molar mass of the structure shown.

Columns and labels:
Br. melitensis SS 19 = assay type: cell-based; conditions: unit assumed
B. anthranis SS 08 = assay type: cell-based; conditions: Brain Heart Infusion, estolate and RV11-RV15 previously hydrolized, unit assumed
Acute toxicity = assay type: in vivo; conditions: mortality 10 days after treatment, mice
Description: The acute toxicity was assessed in Swiss white mice by oral and intravenous route. The LD50 values have been calculated by the methods of Probits, starting from the mortality recorded 10 days after the treatment.

E. aerogenes SS 011 = assay type: cell-based; conditions: Brain Heart Infusion, estolate and RV11-RV15 previously hydrolized, unit assumed
Staph. aureus SS 07 [1] = assay type: cell-based; conditions: Brain Heart Infusion, estolate and RV11-RV15 previously hydrolized, unit assumed
Citrobacter SS 05 = assay type: cell-based; conditions: Brain Heart Infusion, estolate and RV11-RV15 previously hydrolized, unit assumed
C. albicans SS 04 = assay type: cell-based; conditions: Brain Heart Infusion, estolate and RV11-RV15 previously hydrolized, unit assumed
S. lutea ATCC 9341 = assay type: cell-based; conditions: Brain Heart Infusion, estolate and RV11-RV15 previously hydrolized, unit assumed
Staph. aureus SS 07 [2] = test: Experimental infection induced by Staph. aureus SS 07; assay type: in vivo, Swiss white mice; conditions: Staph. aureus SS 07, mg/kg of erythromycin, survival after 7 days, 10080 min
Outline: (§1)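 Swiss mice of 20 g infected parenterally with lethal amounts of Staph. aureus SS 07 or D. pneumoniae SS 23. Antibiotics were given at infection and again 6 and 24 h later. ED50 was derived from survival at 7 days.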

B. cereus ATCC 11778 = assay type: cell-based; conditions: Brain Heart Infusion, estolate and RV11-RV15 previously hydrolized, unit assumed
S. heidelberg SS 18 = assay type: cell-based; conditions: Brain Heart Infusion, estolate and RV11-RV15 previously hydrolized, unit assumed
Staph. aureus SS 08 = assay type: cell-based; conditions: Brain Heart Infusion, estolate and RV11-RV15 previously hydrolized, unit assumed
Kl. pneumoniae SS 04 = assay type: cell-based; conditions: Brain Heart Infusion, estolate and RV11-RV15 previously hydrolized, unit assumed
From the text: (§2) In the following table I the MIC/ml values are indicated corresponding to the lowest concentration capable of inducing a complete inhibition of the bacterial development.

H. tubercolosis SS 03 = assay type: cell-based; conditions: Brain Heart Infusion, estolate and RV11-RV15 previously hydrolized, unit assumed
From the text: as §2

N. meningitidis SS 04 = assay type: cell-based; conditions: Brain Heart Infusion, estolate and RV11-RV15 previously hydrolized, unit assumed
Citrobacter SS 09 = assay type: cell-based; conditions: Brain Heart Infusion, estolate and RV11-RV15 previously hydrolized, unit assumed
B. subtilis SS 127 = assay type: cell-based; conditions: Brain Heart Infusion, estolate and RV11-RV15 previously hydrolized, unit assumed
H. pertussis SS 03 = assay type: cell-based; conditions: Brain Heart Infusion, estolate and RV11-RV15 previously hydrolized, unit assumed
Staph. aureus SS 10 = assay type: cell-based; conditions: Brain Heart Infusion, estolate and RV11-RV15 previously hydrolized, unit assumed
Cl. tetani SS 17 = assay type: cell-based; conditions: Brain Heart Infusion, estolate and RV11-RV15 previously hydrolized, unit assumed
Strept. faecalis SS 19 = assay type: cell-based; conditions: Brain Heart Infusion, estolate and RV11-RV15 previously hydrolized, unit assumed
S. infantis SS 08 = assay type: cell-based; conditions: Brain Heart Infusion, estolate and RV11-RV15 previously hydrolized, unit assumed
E. coli SS 07 = assay type: cell-based; conditions: Brain Heart Infusion, estolate and RV11-RV15 previously hydrolized, unit assumed
Br. abortus SS 7 = assay type: cell-based; conditions: Brain Heart Infusion, estolate and RV11-RV15 previously hydrolized, unit assumed
[3] = Histological examination of bronchi after SO2 inhalation; assay type: in vivo, Sprague Dawley male rats; conditions: i.m., 250 mg/kg; for histological appearance of non obstructed bronchi: free non obstructed
B. anthranis SS 09 = assay type: cell-based; conditions: B. anthranis SS 09 (14 bis); Brain Heart Infusion; estolate and RV11-RV15 previously hydrolized; unit assumed
D. pneumoniae SS 23 [4] = assay type: cell-based; conditions: Brain Heart Infusion, estolate and RV11-RV15 previously hydrolized, unit assumed
Staph. albus SS 03 = assay type: cell-based; conditions: Brain Heart Infusion, estolate and RV11-RV15 previously hydrolized, unit assumed
E. cloacae SS 07 = assay type: cell-based; conditions: Brain Heart Infusion, estolate and RV11-RV15 previously hydrolized, unit assumed
Pr. mirabilis SS 09 = assay type: cell-based; conditions: Brain Heart Infusion, estolate and RV11-RV15 previously hydrolized, unit assumed
H. influentiae SS 02 = assay type: cell-based; conditions: Brain Heart Infusion, estolate and RV11-RV15 previously hydrolized, unit assumed
E. coli SS 06 = assay type: cell-based; conditions: Brain Heart Infusion, estolate and RV11-RV15 previously hydrolized, unit assumed
B. subtilis ATCC 6633 = assay type: cell-based; conditions: Brain Heart Infusion, estolate and RV11-RV15 previously hydrolized, unit assumed
Ps. aeruginosa SS 10 = assay type: cell-based; conditions: Brain Heart Infusion, estolate and RV11-RV15 previously hydrolized, unit assumed
C. diphtheriae SS 19 = assay type: cell-based; conditions: Brain Heart Infusion, estolate and RV11-RV15 previously hydrolized, unit assumed
E. coli SS 04 = assay type: cell-based; conditions: Brain Heart Infusion, estolate and RV11-RV15 previously hydrolized, unit assumed
Kl. aerogenes SS 71 = assay type: cell-based; conditions: Brain Heart Infusion, estolate and RV11-RV15 previously hydrolized, unit assumed
[5] = system: Strept. haemolyticus SS 18; assay type: cell-based; conditions: Brain Heart Infusion, estolate and RV11-RV15 previously hydrolized, unit assumed
E. coli SS 05 = assay type: cell-based; conditions: Brain Heart Infusion, estolate and RV11-RV15 previously hydrolized, unit assumed
[6] = system: Strept. haemolyticus SS 17; assay type: cell-based; conditions: Brain Heart Infusion, estolate and RV11-RV15 previously hydrolized, unit assumed
D. pneumoniae SS 23 [7] = test: Experimental infection induced by D. pneumoniae SS 23; assay type: in vivo, Swiss white mice; conditions: D. pneumoniae SS 23, mg/kg of erythromycin, survival after 7 days, 10080 min
Outline: as §1

[8] = Mucolytic activity: obstruction of the bronchial tract after SO2 inhalation; assay type: in vivo, Sprague Dawley male rats; conditions: i.m., 250 mg/kg; SO2, 15 days

CC[C@H]1OC(=O)[C@H](C)[C@@H](O[C@H]2C[C@@](C)(OC)[C@@H](O)[C@H](C)O2)[C@H](C)[C@@H](O[C@@H]2O[C@H](C)C[C@H](N(C)C)[C@H]2O)[C@](C)(O)C[C@@H](C)C(=O)[C@H](C)[C@@H](O)[C@]1(C)O [RV04, erythromycin-S-carboxymethylcysteinate]
MIC (Br. melitensis SS 19): 6 µg/mL (≈ 8.18 µM)
MIC (B. anthranis SS 08): 0.4 µg/mL (≈ 0.545 µM)
LD50 (reliability limits) (Acute toxicity; i.v., 14400 min): 439.46 (545.44-354.08) mg.kg
LD50 (reliability limits) (Acute toxicity; os): > 3000 mg·kg
MIC (E. aerogenes SS 011): 50 µg/mL (≈ 68.1 µM)
MIC (Staph. aureus SS 07 [1]): 0.025 µg/mL (≈ 0.0341 µM)
MIC (Citrobacter SS 05): > 200 µg/mL
MIC (C. albicans SS 04): 100 µg/mL (≈ 136 µM)
MIC (S. lutea ATCC 9341): 0.01 µg/mL (≈ 0.0136 µM)
ED50 (reliability limits) (Staph. aureus SS 07 [2]; os): 2.31 (2.55-2.09) mg/kg
ED50 (reliability limits) (Staph. aureus SS 07 [2]; s.c.): 1.00 (1.24-0.80) mg/kg
MIC (B. cereus ATCC 11778): 0.2 µg/mL (≈ 0.273 µM)
MIC (S. heidelberg SS 18): 100 µg/mL (≈ 136 µM)
MIC (Staph. aureus SS 08): 0.05 µg/mL (≈ 0.0681 µM)
MIC (Kl. pneumoniae SS 04): 100 µg/mL (≈ 136 µM)
MIC (H. tubercolosis SS 03): 50 µg/mL (≈ 68.1 µM)
MIC (N. meningitidis SS 04): 1.5 µg/mL (≈ 2.04 µM)
MIC (Citrobacter SS 09): > 200 µg/mL
MIC (B. subtilis SS 127): 0.025 µg/mL (≈ 0.0341 µM)
MIC (H. pertussis SS 03): 0.8 µg/mL (≈ 1.09 µM)
MIC (Staph. aureus SS 10): 0.2 µg/mL (≈ 0.273 µM)
MIC (Cl. tetani SS 17): 0.2 µg/mL (≈ 0.273 µM)
MIC (Strept. faecalis SS 19): 0.05 µg/mL (≈ 0.0681 µM)
MIC (S. infantis SS 08): 100 µg/mL (≈ 136 µM)
MIC (E. coli SS 07): 25 µg/mL (≈ 34.1 µM)
MIC (Br. abortus SS 7): 6 µg/mL (≈ 8.18 µM)
histological appearance of non obstructed bronchi [3]: practically normal appearance
histological appearance of obstructed bronchial tract [3]: an appearance like that of the control animals
MIC (B. anthranis SS 09): 0.2 µg/mL (≈ 0.273 µM)
MIC (D. pneumoniae SS 23 [4]): 0.05 µg/mL (≈ 0.0681 µM)
MIC (Staph. albus SS 03): 0.1 µg/mL (≈ 0.136 µM)
MIC (E. cloacae SS 07): > 200 µg/mL
MIC (Pr. mirabilis SS 09): 200 µg/mL (≈ 273 µM)
MIC (H. influentiae SS 02): 1.5 µg/mL (≈ 2.04 µM)
MIC (E. coli SS 06): 100 µg/mL (≈ 136 µM)
MIC (B. subtilis ATCC 6633): 0.025 µg/mL (≈ 0.0341 µM)
MIC (Ps. aeruginosa SS 10): 100 µg/mL (≈ 136 µM)
MIC (C. diphtheriae SS 19): 0.205 µg/mL (≈ 0.279 µM)
MIC (E. coli SS 04): 100 µg/mL (≈ 136 µM)
MIC (Kl. aerogenes SS 71): 50 µg/mL (≈ 68.1 µM)
MIC [5]: 1.5 µg/mL (≈ 2.04 µM)
MIC (E. coli SS 05): 50 µg/mL (≈ 68.1 µM)
MIC [6]: 1.5 µg/mL (≈ 2.04 µM)
ED50 (reliability limits) (D. pneumoniae SS 23 [7]; os): 119.31 (152.88-92.95) mg/kg
ED50 (reliability limits) (D. pneumoniae SS 23 [7]; s.c.): 60.17 (70.74-51.18) mg/kg
Partial obstruction (% incidence) [8]: 13.33%
Total obstruction, compact plug (% incidence) [8]: 20%
Total obstruction, nodular mass (% incidence) [8]: 13.33%
Total obstruction, pimply mass (% incidence) [8]: 6.66%

CC[C@H]1OC(=O)[C@H](C)[C@@H](O[C@H]2C[C@@](C)(OC)[C@@H](O)[C@H](C)O2)[C@H](C)[C@@H](O[C@@H]2O[C@H](C)C[C@H](N(C)C)[C@H]2O)[C@](C)(O)C[C@@H](C)C(=O)[C@H](C)[C@@H](O)[C@]1(C)O [RV05, erythromycin-N-acetylcysteinate]
MIC (Br. melitensis SS 19): 3 µg/mL (≈ 4.09 µM)
MIC (B. anthranis SS 08): 0.4 µg/mL (≈ 0.545 µM)
LD50 (reliability limits) (Acute toxicity; i.v., 14400 min): 472.84 (529.08-442.57) mg.kg
LD50 (reliability limits) (Acute toxicity; os): > 3000 mg·kg
MIC (E. aerogenes SS 011): 100 µg/mL (≈ 136 µM)
MIC (Staph. aureus SS 07 [1]): 0.025 µg/mL (≈ 0.0341 µM)
MIC (Citrobacter SS 05): > 200 µg/mL
MIC (C. albicans SS 04): 100 µg/mL (≈ 136 µM)
MIC (S. lutea ATCC 9341): 0.01 µg/mL (≈ 0.0136 µM)
ED50 (reliability limits) (Staph. aureus SS 07 [2]; os): 2.08 (2.38-1.83) mg/kg
ED50 (reliability limits) (Staph. aureus SS 07 [2]; s.c.): 1.33 (1.61-1.10) mg/kg
MIC (B. cereus ATCC 11778): 0.4 µg/mL (≈ 0.545 µM)
MIC (S. heidelberg SS 18): 100 µg/mL (≈ 136 µM)
MIC (Staph. aureus SS 08): 0.025 µg/mL (≈ 0.0341 µM)
MIC (Kl. pneumoniae SS 04): 50 µg/mL (≈ 68.1 µM)
MIC (H. tubercolosis SS 03): 50 µg/mL (≈ 68.1 µM)
MIC (N. meningitidis SS 04): 0.8 µg/mL (≈ 1.09 µM)
MIC (Citrobacter SS 09): > 200 µg/mL
MIC (B. subtilis SS 127): 0.01 µg/mL (≈ 0.0136 µM)
MIC (H. pertussis SS 03): 0.2 µg/mL (≈ 0.273 µM)
MIC (Staph. aureus SS 10): 0.025 µg/mL (≈ 0.0341 µM)
MIC (Cl. tetani SS 17): 0.2 µg/mL (≈ 0.273 µM)
MIC (Strept. faecalis SS 19): 0.2 µg/mL (≈ 0.273 µM)
MIC (S. infantis SS 08): 100 µg/mL (≈ 136 µM)
MIC (E. coli SS 07): 25 µg/mL (≈ 34.1 µM)
MIC (Br. abortus SS 7): 12 µg/mL (≈ 16.4 µM)
histological appearance of non obstructed bronchi [3]: practically normal appearance
histological appearance of obstructed bronchial tract [3]: an appearance like that of the control animals
MIC (B. anthranis SS 09): 0.4 µg/mL (≈ 0.545 µM)
MIC (D. pneumoniae SS 23 [4]): 0.05 µg/mL (≈ 0.0681 µM)
MIC (Staph. albus SS 03): 0.05 µg/mL (≈ 0.0681 µM)
MIC (E. cloacae SS 07): > 200 µg/mL
MIC (Pr. mirabilis SS 09): > 200 µg/mL
MIC (H. influentiae SS 02): 0.8 µg/mL (≈ 1.09 µM)
MIC (E. coli SS 06): 100 µg/mL (≈ 136 µM)
MIC (B. subtilis ATCC 6633): 0.01 µg/mL (≈ 0.0136 µM)
MIC (Ps. aeruginosa SS 10): 200 µg/mL (≈ 273 µM)
MIC (C. diphtheriae SS 19): 0.05 µg/mL (≈ 0.0681 µM)
MIC (E. coli SS 04): 100 µg/mL (≈ 136 µM)
MIC (Kl. aerogenes SS 71): 50 µg/mL (≈ 68.1 µM)
MIC [5]: 0.8 µg/mL (≈ 1.09 µM)
MIC (E. coli SS 05): 25 µg/mL (≈ 34.1 µM)
MIC [6]: 3 µg/mL (≈ 4.09 µM)
ED50 (reliability limits) (D. pneumoniae SS 23 [7]; os): 119.31 (150.05-94.87) mg/kg
ED50 (reliability limits) (D. pneumoniae SS 23 [7]; s.c.): 50.22 (62.33-40.46) mg/kg
Partial obstruction (% incidence) [8]: 6.66%
Total obstruction, compact plug (% incidence) [8]: 20%
Total obstruction, nodular mass (% incidence) [8]: 13.33%
Total obstruction, pimply mass (% incidence) [8]: 6.66%
